Series [1] has as its system palbociclib and fulvestrant double-resistant ER+BC PDX model (ST941). The series can be described thus: Tumor growth inhibition in palbociclib and fulvestrant double-resistant PDX model. In kind it is in vivo, mice. The settings on record: fulvestrant 2.5 mg/kg weekly SC. How it is done: (§1) Tumor growth inhibition was evaluated in estrogen receptor-positive breast cancer (ER+BC) PDX models selected in vivo for resistance to the CDK4/6 inhibitor palbociclib (ST1799, n=1) or resistance to both palbociclib and fulvestrant (ST941, n=1). Dosing was initiated when tumors were 100-200 mm^3.

Series [2] deals with PDX models BR5010 (TNBC), LU5178 (SCLC), OV15398 (HGSOC). The series can be described thus: Tumor growth inhibition in TNBC, SCLC and HGSOC PDX models (Example 10). In kind it is in vivo, NOD/SCID mice.
For series [3], the system named is palbociclib-resistant ER+BC PDX (ST1799) model. The series can be described thus: Tumor growth inhibition in palbociclib-resistant PDX model. Particulars: last day of 28-day dosing, Compound 101 6 mg/kg QD PO, fulvestrant 2.5 mg/kg weekly SC, palbociclib 50 mpk QD PO. In kind it is in vivo, mice. How it is done:
as §1

In series [4] the test system is CRC cell line SW480 (KRAS p.G12V mutant). Put plainly: In vitro combination study, CellTiter-Glo viability, CalcuSyn. In kind it is cell-based. The settings on record: 5 days.
Series [5] concerns HR+ breast cancer cell line T47D (PIK3CA p.H1047R). Described as above. The format is cell-based. The settings on record: 5 days.
Series [6] concerns CRC cell line RKO (BRAF p.V600E mutant). Described as above. The format is cell-based. The settings on record: 5 days. From the text:
(§2) Combination effect is reflected by shift in IC50 of Compound 101 with addition of carboplatin or oxaliplatin or increased antiproliferative effect with lower amounts of either single agent. This is visualized in the isobolograms of FIG. 5, where points below the diagonal line reflect synergy.

The test system of series [7] is SCLC cell line (NCI-H1048). Described as above. The format is cell-based. The settings on record: 5 days; median effect principle (Chou-Talalay).
Text: as §2

The test system of series [8] is 12 PDX models representing SCLC, TNBC and HGSOC. Put plainly: TGI in 12 PDX models (Example 12). In kind it is in vivo.
Method: Dosing was initiated when tumors were 150-300 mm^3. […] TGI was calculated on the last day of dosing using the formula: TGI=(Vc1−Vt1)/(Vc0−Vt0), where Vc1 and Vt1 are the mean volumes of control and treated groups at the time of tumor extraction, while Vc0 and Vt0 are the same groups at the start of dosing.
Series [9] has as its system ST390 (modeling pancreatic ductal adenocarcinoma (PDAC)). The series can be described thus: Tumor growth inhibition in PDAC PDX model. Particulars: 6 mg/kg QD PO, over ~28 days, dose well below the MTD. In kind it is in vivo.
Method: In the PDAC model, Compound 101 was orally administered to tumor-bearing NOD/SCID mice at 6 mg/kg QD. […] The % regression was calculated as: (Mean TV Compound 101 @ EOT)/(Mean TV Compound 101 @ Day 0)×100. The same calculations were used for end of study (day 42).
The test system of series [10] is HR+ breast cancer cell line MCF7 (PIK3CA p.E545K). Put plainly: In vitro combination study, CellTiter-Glo viability, CalcuSyn. In kind it is cell-based. The settings on record: 5 days.

`CC1(C)CC[C@H](Nc2ncc(C(F)(F)F)c(-c3c[nH]c4c(P(C)(C)=O)c(C#N)ccc34)n2)CN1` [Compound 101, (S)-7-(dimethylphosphoryl)-3-(2-((6,6-dimethylpiperidin-3-yl)amino)-5-(trifluoromethyl)pyrimidin-4-yl)-1H-indole-6-carbonitrile]: the “Tumor growth inhibition (TGI)” value was 33% in series [1] (last day of 28-day dosing, Compound 101 6 mg/kg QD PO) and 83% in series [3]. Further, the “transcriptional responses in xenograft tissue” value in series [2] (after dosing) was “Dose-dependent transcriptional responses in xenograft tissue were observed within 4 hours of dosing and were sustained for 24 hours”. Moreover, the “TGI, in words” value in series [2] (oral, 21 days, TNBC 10 mg/kg QD or 5 mg/kg BID, SCLC and HGSOC 3 mg/kg BID, followed 21 days after treatment) is “deep and sustained TGI, including regressions”. Moreover, the “combination effect with trametinib” value in series [4] and in series [6] (BRAF p.V600E mutant CRC) was “significant synergy” in each case. Also, the “combination effect with alpelisib” value in [5] and in series [10] (PIK3CA p.E545K) was “significant synergy” each time. Also, the “combination effect with oxaliplatin” value in series [6] (median effect principle (Chou-Talalay)) was “showed synergy and was superior to either agent alone”. The “combination effect with carboplatin” value in series [7] was “showed synergy and was superior to either agent alone”. Further, in series [7], the “combination effect with gemcitabine” value is “showed synergy and was superior to either agent alone”. For the same compound, the “tolerability / body weight loss” value in series [8] (all once-daily doses tested, tumor-bearing mice) is “well tolerated, with no evident body weight loss”. In series [8] (subset of models (58%, 7/12), TGI or regression), the “TGI of deep responses” value is given as over 95%. The MTD entry in [8] (tumor-bearing mice) is listed as “above 10 mg/kg once daily”. Besides, in [9], the TGI is given as 100%. In addition, the “combination effect with capecitabine” value in series [10] (HR+ MCF-7 cells) is “showed synergy and was superior to either agent alone”.

As to `C[C@]12CC[C@@H]3c4ccc(O)cc4C[C@@H](CCCCCCCCC[S+]([O-])CCCC(F)(F)C(F)(F)F)[C@H]3[C@@H]1CC[C@@H]2O` (some centres unmarked) [fulvestrant, reference compound], the “activity (tumor growth inhibition), in words” value in series [1] (palbociclib 50 mpk QD PO) was “no activity”.

(Values after patent publication US12240869B2, “Inhibitors of cyclin-dependent kinase 7 (CDK7)” (Syros Pharmaceuticals, Inc., priority 2018, dated 2025).)
